Measurements: patent US10738028B2, “Spiro three-membered ring, spiro five-membered ring peptide deformylase inhibitor and use thereof in antibacteria and anti-tumor” (priority 2016, dated 2020)
Converted amounts (≈) assume the structure as drawn.

Tests used:
Assay type in all cases: cell-based
[1] = system: Enterococcus faecium (EFM); assay: MIC, two-fold agar dilution (CLSI), clinical isolates
From the text: (§1) 1. The invention adopts the two-fold agar dilution method recommended by the operating procedure of antimicrobial susceptibility testing set by American Clinical and Laboratory Standards Institute (CLSI) to determine the Minimum Inhibitory Concentration (MIC) of the test samples against the tested strains.

[2] = system: Enterococcus faecalis (EFA); assay: as above
From the text: as §1

[3] = system: methicillin-resistant Staphylococcus epidermidis (MRSE); assay: as above
From the text: as §1

[4] = system: Escherichia coli (including ESBLs, non-ESBLs); assay: as above
From the text: as §1

[5] = system: methicillin-sensitive Staphylococcus epidermidis (MSSE); assay: as above
From the text: as §1

[6] = system: Streptococcus pneoumoniae (SPN); assay: as above
From the text: as §1

[7] = system: Moraxella catarrhalis (BCA); assay: as above; settings: for Anti-bacterial activity (MIC), strain BCA 14-10: clinical isolate BCA 14-10
From the text: as §1

[8] = system: methicillin-resistant Staphylococcus aureus (MRSA); assay: as above
From the text: as §1

[9] = system: methicillin-sensitive Staphylococcus aureus (MSSA); assay: as above
From the text: as §1

[10] = system: HCT-116 colorectal cancer cell line; assay: CCK-8 proliferation inhibition; settings: Homo sapiens, HCT-116, 72 h, concentration of 30 μM; 72 hours; CCK-8; read-out: HCT116 inhibition rate/%
Method in brief: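 Viability read-out: 1:10 diluted CCK-8 after 72 h compound exposure at 37 °C, 5% CO2. Cells (2000/well, McCoy's 5A plus 10% newborn bovine serum) pre-cultured overnight; vehicle control 1‰ DMSO.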

O=CN(O)C[C@@H](CC1CCCC1)C(=O)N1CC2(CC2)C[C@H]1C(=O)Nc1ccc(F)cn1 [Example 28]
MIC (anti-bacterial activity) ([1]; strain EFM 15-1): 0.5 µg/mL (≈ 1.16 µM) | MIC (anti-bacterial activity) ([1]; strain EFM 15-2): 1 µg/mL (≈ 2.31 µM) | MIC (anti-bacterial activity) ([1]; strain EFM 15-3): 0.125 µg/mL (≈ 0.289 µM) | MIC (anti-bacterial activity) ([1]; strain EFM 15-4): 1 µg/mL (≈ 2.31 µM) | MIC (anti-bacterial activity) ([1]; strain EFM 15-5): 1 µg/mL (≈ 2.31 µM) | MIC (anti-bacterial activity) ([1]; strain EFM 15-6): 1 µg/mL (≈ 2.31 µM) | MIC (anti-bacterial activity) ([2]; strain EFA 15-1): 2 µg/mL (≈ 4.62 µM) | MIC (anti-bacterial activity) ([2]; strain EFA 15-2): 2 µg/mL (≈ 4.62 µM) | MIC (anti-bacterial activity) ([2]; strain EFA 15-3): 2 µg/mL (≈ 4.62 µM) | MIC (anti-bacterial activity) ([2]; strain EFA 15-4): 2 µg/mL (≈ 4.62 µM) | MIC (anti-bacterial activity) ([2]; strain EFA 15-5): 2 µg/mL (≈ 4.62 µM) | MIC (anti-bacterial activity) ([2]; strain EFA 15-6): 2 µg/mL (≈ 4.62 µM) | MIC (anti-bacterial activity) ([2]; strain EFA 15-9): 2 µg/mL (≈ 4.62 µM) | MIC (anti-bacterial activity) ([3]; strain MRSE 15-1): 0.125 µg/mL (≈ 0.289 µM) | MIC (anti-bacterial activity) ([3]; strain MRSE 15-2): 0.5 µg/mL (≈ 1.16 µM) | MIC (anti-bacterial activity) ([3]; strain MRSE 15-3): 0.5 µg/mL (≈ 1.16 µM) | MIC (anti-bacterial activity) ([3]; strain MRSE 15-7): 0.5 µg/mL (≈ 1.16 µM) | MIC (anti-bacterial activity) ([4]; strain ECO+ 15-1): 16 µg/mL (≈ 37 µM) | MIC (anti-bacterial activity) ([4]; strain ECO+ 15-2): 64 µg/mL (≈ 148 µM) | MIC (anti-bacterial activity) ([4]; strain ECO+ 15-3): 64 µg/mL (≈ 148 µM) | MIC (anti-bacterial activity) ([4]; strain ECO+ 15-4): 32 µg/mL (≈ 74 µM) | MIC (anti-bacterial activity) ([4]; strain ECO− 15-1): 32 µg/mL (≈ 74 µM) | MIC (anti-bacterial activity) ([4]; strain ECO− 15-2): 32 µg/mL (≈ 74 µM) | MIC (anti-bacterial activity) ([4]; strain ECO− 15-3): 64 µg/mL (≈ 148 µM) | MIC (anti-bacterial activity) ([4]; strain ECO− 15-4): 64 µg/mL (≈ 148 µM) | MIC (anti-bacterial activity) ([5]; strain MSSE 15-3): 0.125 µg/mL (≈ 0.289 µM) | MIC (anti-bacterial activity) ([5]; strain MSSE 15-4): 0.125 µg/mL (≈ 0.289 µM) | MIC (anti-bacterial activity) ([5]; strain MSSE 15-5): 0.125 µg/mL (≈ 0.289 µM) | MIC (anti-bacterial activity) ([5]; strain MSSE 15-6): 0.06 µg/mL (≈ 0.139 µM) | MIC (anti-bacterial activity) ([6]; strain SPN 16-4): 1 µg/mL (≈ 2.31 µM) | Anti-bacterial activity (MIC), strain BCA 14-10 [7]: 0.25 µg/mL | MIC (anti-bacterial activity) ([7]; strain BCA 14-1): 1 µg/mL (≈ 2.31 µM) | MIC (anti-bacterial activity) ([7]; strain BCA 14-4): 1 µg/mL (≈ 2.31 µM) | MIC (anti-bacterial activity) ([7]; strain BCA 14-5): 0.25 µg/mL (≈ 0.578 µM) | MIC (anti-bacterial activity) ([7]; strain BCA 14-6): 1 µg/mL (≈ 2.31 µM) | MIC (anti-bacterial activity) ([7]; strain BCA 14-7): 0.125 µg/mL (≈ 0.289 µM) | MIC (anti-bacterial activity) ([7]; strain BCA 14-8): 0.5 µg/mL (≈ 1.16 µM) | MIC (anti-bacterial activity) ([8]; strain MRSA 15-1): 0.125 µg/mL (≈ 0.289 µM) | MIC (anti-bacterial activity) ([8]; strain MRSA 15-2): 0.125 µg/mL (≈ 0.289 µM) | MIC (anti-bacterial activity) ([8]; strain MRSA 15-3): 0.125 µg/mL (≈ 0.289 µM) | MIC (anti-bacterial activity) ([8]; strain MRSA 15-4): 0.125 µg/mL (≈ 0.289 µM) | MIC (anti-bacterial activity) ([9]; strain MSSA 15-3): 0.125 µg/mL (≈ 0.289 µM) | MIC (anti-bacterial activity) ([9]; strain MSSA 15-4): 0.125 µg/mL (≈ 0.289 µM) | MIC (anti-bacterial activity) ([9]; strain MSSA 15-5): 0.125 µg/mL (≈ 0.289 µM) | MIC (anti-bacterial activity) ([9]; strain MSSA 15-6): 0.125 µg/mL (≈ 0.289 µM) | inhibition at 30 µM [10]: 21%

O=CN(O)C[C@@H](CC1CCCC1)C(=O)N1CC2(CC2)C[C@H]1C(=O)Nc1ncccc1F [Example 30, (S)-5-((R)-3-cyclopentyl-2-((N-hydroxyformamido)methyl)propionyl)-N-(3-fluoropyridin-2-yl)-5-spiro[2.4]heptane-6-carboxamide]
MIC (anti-bacterial activity) ([1]; strain EFM 15-1): 2 µg/mL (≈ 4.62 µM) | MIC (anti-bacterial activity) ([1]; strain EFM 15-2): 1 µg/mL (≈ 2.31 µM) | MIC (anti-bacterial activity) ([1]; strain EFM 15-3): 0.25 µg/mL (≈ 0.578 µM) | MIC (anti-bacterial activity) ([1]; strain EFM 15-4): 1 µg/mL (≈ 2.31 µM) | MIC (anti-bacterial activity) ([1]; strain EFM 15-5): 4 µg/mL (≈ 9.25 µM) | MIC (anti-bacterial activity) ([1]; strain EFM 15-6): 1 µg/mL (≈ 2.31 µM) | MIC (anti-bacterial activity) ([2]; strain EFA 15-1): 4 µg/mL (≈ 9.25 µM) | MIC (anti-bacterial activity) ([2]; strain EFA 15-2): 4 µg/mL (≈ 9.25 µM) | MIC (anti-bacterial activity) ([2]; strain EFA 15-3): 4 µg/mL (≈ 9.25 µM) | MIC (anti-bacterial activity) ([2]; strain EFA 15-4): 4 µg/mL (≈ 9.25 µM) | MIC (anti-bacterial activity) ([2]; strain EFA 15-5): 4 µg/mL (≈ 9.25 µM) | MIC (anti-bacterial activity) ([2]; strain EFA 15-6): 2 µg/mL (≈ 4.62 µM) | MIC (anti-bacterial activity) ([2]; strain EFA 15-9): 8 µg/mL (≈ 18.5 µM) | MIC (anti-bacterial activity) ([3]; strain MRSE 15-1): 0.5 µg/mL (≈ 1.16 µM) | MIC (anti-bacterial activity) ([3]; strain MRSE 15-2): 2 µg/mL (≈ 4.62 µM) | MIC (anti-bacterial activity) ([3]; strain MRSE 15-3): 2 µg/mL (≈ 4.62 µM) | MIC (anti-bacterial activity) ([3]; strain MRSE 15-7): 2 µg/mL (≈ 4.62 µM) | MIC (anti-bacterial activity) ([4]; strain ECO+ 15-1): 32 µg/mL (≈ 74 µM) | MIC (anti-bacterial activity) ([4]; strain ECO+ 15-2): > 32 µg/mL | MIC (anti-bacterial activity) ([4]; strain ECO+ 15-3): > 32 µg/mL | MIC (anti-bacterial activity) ([4]; strain ECO+ 15-4): > 32 µg/mL | MIC (anti-bacterial activity) ([4]; strain ECO− 15-1): > 32 µg/mL | MIC (anti-bacterial activity) ([4]; strain ECO− 15-2): > 32 µg/mL | MIC (anti-bacterial activity) ([4]; strain ECO− 15-3): > 32 µg/mL | MIC (anti-bacterial activity) ([4]; strain ECO− 15-4): > 32 µg/mL | MIC (anti-bacterial activity) ([5]; strain MSSE 15-3): 2 µg/mL (≈ 4.62 µM) | MIC (anti-bacterial activity) ([5]; strain MSSE 15-4): 2 µg/mL (≈ 4.62 µM) | MIC (anti-bacterial activity) ([5]; strain MSSE 15-5): 2 µg/mL (≈ 4.62 µM) | MIC (anti-bacterial activity) ([5]; strain MSSE 15-6): 0.5 µg/mL (≈ 1.16 µM) | MIC (anti-bacterial activity) ([6]; strain SPN 16-2): 4 µg/mL (≈ 9.25 µM) | MIC (anti-bacterial activity) ([6]; strain SPN 16-4): 1 µg/mL (≈ 2.31 µM) | Anti-bacterial activity (MIC), strain BCA 14-10 [7]: 0.5 µg/mL | MIC (anti-bacterial activity) ([7]; strain BCA 14-1): 2 µg/mL (≈ 4.62 µM) | MIC (anti-bacterial activity) ([7]; strain BCA 14-4): 2 µg/mL (≈ 4.62 µM) | MIC (anti-bacterial activity) ([7]; strain BCA 14-5): 1 µg/mL (≈ 2.31 µM) | MIC (anti-bacterial activity) ([7]; strain BCA 14-6): 4 µg/mL (≈ 9.25 µM) | MIC (anti-bacterial activity) ([7]; strain BCA 14-7): 1 µg/mL (≈ 2.31 µM) | MIC (anti-bacterial activity) ([7]; strain BCA 14-8): 1 µg/mL (≈ 2.31 µM) | MIC (anti-bacterial activity) ([8]; strain MRSA 15-1): 0.5 µg/mL (≈ 1.16 µM) | MIC (anti-bacterial activity) ([8]; strain MRSA 15-2): 0.5 µg/mL (≈ 1.16 µM) | MIC (anti-bacterial activity) ([8]; strain MRSA 15-3): 0.5 µg/mL (≈ 1.16 µM) | MIC (anti-bacterial activity) ([8]; strain MRSA 15-4): 0.5 µg/mL (≈ 1.16 µM) | MIC (anti-bacterial activity) ([9]; strain MSSA 15-3): 0.5 µg/mL (≈ 1.16 µM) | MIC (anti-bacterial activity) ([9]; strain MSSA 15-4): 0.5 µg/mL (≈ 1.16 µM) | MIC (anti-bacterial activity) ([9]; strain MSSA 15-5): 0.5 µg/mL (≈ 1.16 µM) | MIC (anti-bacterial activity) ([9]; strain MSSA 15-6): 0.5 µg/mL (≈ 1.16 µM) | inhibition at 30 µM [10]: 17%
